For data set [1], the target named is T1, Amyloid-beta protein (1-42) (Homo sapiens, UniProt P05067).
T1 construct: Amyloid-beta protein (1-42) hydrochloride salt (Bachem AG, Switzerland); purchased Bachem AG, Switzerland
Nature of the data set: Amyloid-beta (1-42) aggregation under anaesthetic gas: electrophoresis/western blot of monomer, LMW and HMW bands. In kind it is biochemical. The conditions noted are these: Xenon (50%) in air balanced with 5% CO2, 37° C., 24 hours. As to the method:
For detection of monomer formation Amyloid-beta protein (1-42) hydrochloride salt (Bachem AG, Switzerland) stored at −80° C. was removed and placed on ice. 1,1,1,3,3,3-hexafluoro-2-propanol (HFIP) (Sigma-Aldrich, Poole, UK) was placed on ice in the hood and allow to cool.110 HFIP was added to 0.5 mg amyloid- ? to produce a final concentration of 1 mM. The HFIP plus amyloid-beta solution was mixed on the vortex to ensure no solid remained on the vial edges. The HFIP plus amyloid-beta solution was incubated at room temperature for 60 minutes with the vial closed. The solution was then placed on ice for 10 minutes. The HFIP plus amyloid-beta solution was aliquoted into non-siliconized micro-centrifuge tubes amyloid-beta1-42). […]
When required peptide film containing tubes were removed from the −80° C. freezer and placed on ice. […] The protein was produced as above and was analysed immediately this was termed 0 hours. […]
The treated samples were centrifuged at 14,000 rpm at 4° C. for 10 minutes. […] The bands were detected with horseradish peroxidase-linked Ig anti-rabbit antibody (concentration 1:1000) (New England Biolab, Hitchin, UK) and visualised with the enhanced chemiluminesence system (ECL, Amersham Biosciences, Little Chalfont, UK). The monomer, LMW and HMW bands were located using a protein ladder to determine the molecular mass and were then quantified by densitometry (Adobe Photoshop). […]

For data set [2] the following is noted: cited from earlier work.

Molecules are shown by their SMILES. Read-outs that look alike come from different tables or passages of the source.

T1 sequence (P05067 672-713 limits assumed): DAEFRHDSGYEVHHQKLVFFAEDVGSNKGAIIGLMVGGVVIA

For `[Xe]` [xenon], the “Amyloid β aggregation (electrophoresis stain, FIG. 2A)” value in data set [1] is recorded as “reduces Amyloid β aggregation”. In addition, the safety entry in data set [2] (12 healthy volunteers, xenon in increasing concentrations 10%, 20%, 30%, 40% (Peterson-Felix et al.)) is listed as “Safety was reported”. The adverse events entry in data set [2] (six healthy male volunteers, 21% xenon for 20 minutes (Yagi et al.)) is reported as “no adverse events”; in data set [2] (ten healthy adults, xenon 25%, 30% and 35%, each for 5-minute intervals (Sclabassi et al.)), “no adverse events”.

The values above are taken from US20170348349A1, “Modulation of Amyloid Beta Toxicity and Processing By Xenon Gas” (NOBLIS THERAPEUTICS, INC., priority 2016, published 2017).
